Results published in patent publication US9169241B2, “Quinolinyloxyphenylsulfonamides” (Max-Planck-Gesellschaft Zur Forderung der Wissenschaften …, priority 2009, dated 2015).
Like-named read-outs stand apart in the source and are kept apart here.

Legend:
[1] = test system: viable cells in culture; assay: Cell viability assay at 10 μM (CellTiter-Glo, Table VII); type: cell-based; conditions: compound 10 μM, 72 h;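 note: graded A 0-20%; B 21-40%; C 41-60%; D over 60% viable cells relative to DMSO control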
Method in brief: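 Cells were seeded at 1000 cells/well in 96-well plates in 100 μl culture medium and incubated for 72 h with 10 μM compound or a DMSO control. ATP content, which reflects metabolically active and therefore viable cells, was then determined by CellTiter-Glo luminescence (Promega) per the manufacturer's instructions and expressed relative to the DMSO control.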

[2] = test system: Hs578T; assay: Matrigel outgrowth assay/branching assay; type: cell-based; conditions: Homo sapiens, Hs-578T; HS578T cell line; Table Ib; read-out: Total branching inhibition in Matrigel HS578T
Method in brief: (§1)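 Matrigel 3 mg/ml, polymerized 1 h 37° C; 5000 cells/well + cmpd 3.125/1.56/0.78 μM or DMSO. Imaged 48/72/96 h, 5× objective. Positive = total branching block.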

[3] = test system: Hs578T; assay: Apoptosis assay (Cellomics, nucleus condensation); type: cell-based; conditions: Homo sapiens, Hs-578T, Table III, read-out: Apoptosis induction in Hs578T
Method in brief: (§2)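 Readout: per-nucleus Hoechst 33342 fluorescence intensity and its population variation, plus number of detected cells, by automated CCD imaging. Live cells, 5000/well; compound 0.39–12.5 μM (twofold series) vs DMSO, read at 24 h and 48 h.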

[4] = test system: SF763; assay: Apoptosis assay (Cellomics, nucleus condensation); type: cell-based; conditions: Table III, read-out: Apoptosis induction in SF763
Method in brief: as §2

[5] = test system: U118; assay: Apoptosis assay (Cellomics, nucleus condensation); type: cell-based; conditions: Table III, read-out: Apoptosis induction in U118
Method in brief: as §2

[6] = test system: C8161; assay: Apoptosis assay (Cellomics, nucleus condensation); type: cell-based; conditions: Homo sapiens, Table III, read-out: Apoptosis induction in C8161
Method in brief: as §2

[7] = test system: U138; assay: Apoptosis assay (Cellomics, nucleus condensation); type: cell-based; conditions: Table III, read-out: Apoptosis induction in U138
Method in brief: as §2

[8] = test system: SF126; assay: Apoptosis assay (Cellomics, nucleus condensation); type: cell-based; conditions: Homo sapiens, SF-126, Table III, read-out: Apoptosis induction in SF126
Method in brief: as §2

[9] = test system: indicated cell line; assay: Wound healing migration assay (Table IV); type: cell-based; conditions: compounds at 12.5, 6.25, 3.125 μM, 48 h-72 h
Method in brief: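 Compound exposure at 12.5, 6.25 and 3.125 μM, with DMSO control, on scratch-wounded monolayers (150000 cells/24 well, overnight). Wound closure imaged by microscopy, fixed with crystal violet after 48 h or 72 h depending on cell line; IC50 is the concentration giving 50% wound size between t0 and t48/t72.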

[10] = test system: cells; assay: Boyden chamber migration assay (Table VI); type: cell-based; conditions: Homo sapiens, Hs-578T, 16 h, Hs578T cells; 16 h migration
Method in brief: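 Migration read-out is a count of fixed cells on the underside of an […] insert membrane after 16 h. Chemoattractant was medium with 10% FCS in the lower chamber; 20000 cells started in serum-free medium with 0.1% BSA above, and those left on top were removed by swab.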

[11] = test system: tumor cell; assay: Matrigel outgrowth assay/branching assay (Table Va); type: cell-based
Method in brief: as §1

[12] = Homo sapiens, HCT-116, HCT116 def, read-out: percentage (%) of viable cells HCT 116def
[13] = Homo sapiens, HCT-116, HCT116 wt, read-out: percentage (%) of viable cells HCT 116wt
[14] = Homo sapiens, HT-29, HT29, read-out: percentage (%) of viable cells HT29
[15] = Homo sapiens, NCI-H358, H358, read-out: percentage (%) of viable cells H358
[16] = Homo sapiens, NCI-H1650, H1650, read-out: percentage (%) of viable cells H1650
[17] = Homo sapiens, NCI-H1666, H1666, read-out: percentage (%) of viable cells H1666
[18] = Homo sapiens, NCI-H1975, H1975, read-out: percentage (%) of viable cells H1975
[19] = Homo sapiens, NCI-H1993, H1993, read-out: percentage (%) of viable cells H1993
[20] = Homo sapiens, A549, read-out: percentage (%) of viable cells A549
[21] = Homo sapiens, HCC827, read-out: percentage (%) of viable cells HCC827
[22] = Homo sapiens, SW480, read-out: percentage (%) of viable cells SW480
[23] = RKO, read-out: percentage (%) of viable cells RKO
[24] = Homo sapiens, C8161 cells, read-out: IC50 Wound healing Assay C8161
[25] = SF763 cells, read-out: IC50 Wound healing Assay SF763
[26] = Homo sapiens, C8161 cells, read-out: Total branching inhibition in Matrigel C8161
[27] = Homo sapiens, Hs-578T, Hs578T cells, read-out: Total branching inhibition in Matrigel Hs578T
[28] = U118 cells, read-out: Total branching inhibition in Matrigel U118
[29] = U138 cells, read-out: Total branching inhibition in Matrigel U138

| SMILES | viability at 10 µM [1, 12] [%] | viability at 10 µM [1, 13] [%] | viability at 10 µM [1, 14] [%] | viability at 10 µM [1, 15] [%] | viability at 10 µM [1, 16] [%] | viability at 10 µM [1, 17] [%] | viability at 10 µM [1, 18] [%] | viability at 10 µM [1, 19] [%] | viability at 10 µM [1, 20] [%] | viability at 10 µM [1, 21] [%] | viability at 10 µM [1, 22] [%] | viability at 10 µM [1, 23] [%] | melting point [°C] | IC50 [2] [µM] | IC50 [3] [µM] | IC50 [4] [µM] | IC50 [5] [µM] | IC50 [6] [µM] | IC50 [7] [µM] | IC50 [8] [µM] | also measured |
| --- | --- | --- | --- | --- | --- | --- | --- | --- | --- | --- | --- | --- | --- | --- | --- | --- | --- | --- | --- | --- | --- |
| COc1cc2c(Oc3ccc(NS(=O)(=O)c4ccc(Cl)cc4F)cc3F)ccnc2cc1OCCCN1CCN(C)CC1 [Example 27, 4-Chloro-2-fluoro-N-(3-fluoro-4-{6-methoxy-7-[3-(4-methyl-piperazin-1-yl)-propoxy]-quinolin-4-yloxy}-phenyl)-benzenesulfonamide] | 0 to 20 | 0 to 20 | 21 to 40 | 0 to 20 | 41 to 60 | 41 to 60 | 21 to 40 | 0 to 20 | > 60 | > 60 | 0 to 20 | 0 to 20 | 106 to 110 | ≤ 10 | ≤ 12.5 | ≤ 12.5 | ≤ 12.5 | ≤ 12.5 | ≤ 12.5 | 12.5 to 50 | IC50 [9, 24]: 12.5 to 50 µM; IC50 [9, 25]: ≤ 12.5 µM; IC50 [10]: ≤ 5 µM; IC50 [11, 26]: ≤ 5 µM; IC50 [11, 27]: ≤ 5 µM; IC50 [11, 28]: ≤ 5 µM; IC50 [11, 29]: ≤ 5 µM |
| COc1cc2c(Oc3ccc(NS(=O)(=O)c4ccccc4C)cc3F)ccnc2cc1OCCCN1CCN(C)CC1 [Example 28, N-(3-Fluoro-4-{6-methoxy-7-[3-(4-methyl-piperazin-1-yl)-propoxy]-quinolin-4-yloxy}-phenyl)-2-methyl-benzenesulfonamide] | 21 to 40 | 21 to 40 | 21 to 40 | 0 to 20 | 21 to 40 | 41 to 60 | 21 to 40 | 21 to 40 | 21 to 40 | 21 to 40 | 0 to 20 | 0 to 20 | 73 to 75 | 10 to 25 | ≤ 12.5 | ≤ 12.5 | ≤ 12.5 | ≤ 12.5 | ≤ 12.5 | ≤ 12.5 | IC50 [9, 24]: ≤ 12.5 µM; IC50 [9, 25]: ≤ 12.5 µM; IC50 [10]: ≤ 5 µM; IC50 [11, 26]: ≤ 5 µM; IC50 [11, 27]: 5 to 50 µM; IC50 [11, 28]: ≤ 5 µM; IC50 [11, 29]: ≤ 5 µM |
| COc1cc2c(Oc3ccc(NS(=O)(=O)c4cc(Cl)cc(Cl)c4OC)cc3F)ccnc2cc1OCCCN1CCCC(C)C1 (centres unmarked) [Example 75, 3,5-Dichloro-N-(3-fluoro-4-{6-methoxy-7-[3-(3-methyl-piperidin-1-yl)-propoxy]-quinolin-4-yloxy}-phenyl)-2-methoxy-benzenesulfonamide] | 21 to 40 | 21 to 40 | 0 to 20 | 0 to 20 | 21 to 40 | 41 to 60 | 0 to 20 | 21 to 40 | > 60 | > 60 | 0 to 20 | 0 to 20 | 145 to 146 | ≤ 10 | ≤ 12.5 | ≤ 12.5 | ≤ 12.5 | ≤ 12.5 | ≤ 12.5 | ≤ 12.5 | IC50 [9, 24]: 12.5 to 50 µM; IC50 [10]: ≤ 5 µM; IC50 [11, 26]: ≤ 5 µM; IC50 [11, 27]: ≤ 5 µM; IC50 [11, 28]: ≤ 5 µM; IC50 [11, 29]: 5 to 50 µM |
| COc1cc2c(Oc3ccc(NS(=O)(=O)c4cc(F)ccc4F)cc3F)ccnc2cc1OCCCCN1CCOCC1 [Example 83, 2,5-Difluoro-N-{3-fluoro-4-[6-methoxy-7-(4-morpholin-4-yl-butoxy)-quinolin-4-yloxy]-phenyl}-benzenesulfonamide] | 21 to 40 | 0 to 20 | 0 to 20 | 0 to 20 | 21 to 40 | 21 to 40 | 41 to 60 | 0 to 20 | 21 to 40 | 0 to 20 | 21 to 40 | > 60 | 156 to 158 | ≤ 10 | ≤ 12.5 | ≤ 12.5 | ≤ 12.5 | ≤ 12.5 | ≤ 12.5 | ≤ 12.5 | IC50 [9, 24]: ≤ 12.5 µM; IC50 [9, 25]: ≤ 12.5 µM; IC50 [10]: ≤ 5 µM; IC50 [11, 26]: ≤ 5 µM; IC50 [11, 27]: ≤ 5 µM; IC50 [11, 28]: ≤ 5 µM; IC50 [11, 29]: ≤ 5 µM |
